We go through 5 molecules from patent publication US7956047B2, “Use of chondroitin sulphate E (CS-E) for the treatment of diseases or conditions related to collagen fibril formation” (AnaMar AB, priority 2004, dated 2011).

Entries after “also recorded” stand apart in the source; their conditions may differ.

The subject of one assay is collagen monomers. The conditions noted are these: literature / manuscript of the applicant's laboratory; cited from earlier work.
For assay [1], the system named is collagen fibril formation (collagen monomers, collagen type I / collagen type II). Briefly: In vitro collagen fibrillogenesis assay (turbidity / light scattering). In kind it is biochemical, bovine. To be noted: for effect on collagen fibril formation (CFF): purified free CS chains added to collagen monomers (330 nM), pH 7.4, FIG. 2 panel A. The procedure:
Bovine pepsin-extracted collagen type I was purchased from Vitrogen. Collagen II was pepsin extracted from bovine tracheal cartilage, as previously described (Vogel, K. G., Paulsson, M., and Heinegård, D. (1984) Biochem. J. 223, 587-597). The fibrillogenesis assay has been previously described (Hedborn, E. and Heinegård, D. (1989) J. Biol. Chem. 264, 6898-6905).
Briefly, a solution of collagen monomers (330 nM) was brought to neutral pH by addition of an appropriate volume of 0.012M NaOH, and buffered by 20 mM HEPES, 150 mM NaCl at pH 7.4. Perlecan fragment was added at concentrations equimolar to that of collagen or at one tenth the molar concentration of collagen. The sample was mixed vigorously and briefly, and transferred to a cuvette. The sample was incubated at 37° C. (collagen type I) or 35° C. (collagen type II) in water-jacketed cuvettes in the spectrophotometer, and the absorbance due to light scattering at 400 nm (collagen type I) or 313 nm (collagen type II) was monitored over a duration of 5-18 hrs. The increased absorbance/turbidity depends on increasing fibre formation.
Fibrillogenesis was performed as described above. CS-E from squid was purchased from Calbiochem. 0.13 μg/ml corresponding to the molar concentration of GAG chains in previous experiments using recombinant perlecan domain I variants with HS/CS (PG IB) (33 nM).

“cartilage oligomeric matrix protein [COMP]”: the “effect on formation of collagen fibres from monomers in vitro” value (from here on “effect on formation of collagen fibres”) in the assay with collagen monomers is reported as “accelerates the formation of fibres from monomers”. For chondroitin sulphate E [CS-E], in assay [1] (FIG. 2 panel B), the “concentration at which the stimulatory effect on fibril formation reaches saturation” value was 30 µg/mL and the “dose dependence of the stimulatory effect on collagen fibril formation” value is “dose-dependent”. Further, in assay [1], the “effect on collagen fibril formation (CFF)” value is listed as “effective in collagen fibril formation; also recorded: positive result on collagen fibril formation; also recorded: dramatic effects on fibril formation”. For the molecule “chondroitin-6 sulphate [CS-6, reference compound]”, the “effect on collagen fibril formation (CFF)” value in assay [1] is “none of the other CS variants had any significant effect; also recorded: none of the other tested chondroitin sulphate variants (CS-D and CS-6) gives a positive result; also recorded: neither CS-6 nor CS-D had any effect”.

B1: fibromodulin (protein, UniProt Q06828 19-376, looked up)
Fibromodulin: QYEDDPHWWFHYLRSQQSTYYDPYDPYPYETYEPYPYGVDEGPAYTYGSPSPPDPRDCPQECDCPPNFPTAMYCDNRNLKYLPFVPSRMKYVYFQNNQITSIQEGVFDNATGLLWIALHGNQITSDKVGRKVFSKLRHLERLYLDHNNLTRMPGPLPRSLRELHLDHNQISRVPNNALEGLENLTALYLQHNEIQEVGSSMRGLRSLILLDLSYNHLRKVPDGLPSALEQLYMEHNNVYTVPDSYFRGAPKLLYVRLSHNSLTNNGLASNTFNSSSLLELDLSYNQLQKIPPVNTNLENLYLQGNRINEFSISSFCTVVDVVNFSKLQVLRLDGNEIKRSAMPADAPLCLRLASLIEI
Take B1: the “effect on formation of collagen fibres” value with collagen monomers is “slow down fibre formation in vitro”.

B2: decorin (protein, UniProt P07585 31-359, looked up)
Decorin: DEASGIGPEVPDDRDFEPSLGPVCPFRCQCHLRVVQCSDLGLDKVPKDLPPDTTLLDLQNNKITEIKDGDFKNLKNLHALILVNNKISKVSPGAFTPLVKLERLYLSKNQLKELPEKMPKTLQELRAHENEITKVRKVTFNGLNQMIVIELGTNPLKSSGIENGAFQGMKKLSYIRIADTNITSIPQGLPPSLTELHLDGNKISRVDAASLKGLNNLAKLGLSFNSISAVDNGSLANTPHLRELHLDNNKLTRVPGGLAEHKYIQVVYLHNNNISVVGSSDFCPPGHNTKKASYSGVSLFSNPVQYWEIQPSTFRCVYVRSAIQLGNYK
As for B2, the “effect on formation of collagen fibres” value with collagen monomers is listed as “slow down fibre formation in vitro”.
